# Experimental data taken from US8129399B2, “Aminopyrimidines useful as kinase inhibitors” (Vertex Pharmaceuticals Incorporated, priority 2005, dated 2012).
# Read-outs that look alike come from different tables or passages of the source.
# Tests used:
# Type in all cases: biochemical
# Aurora-1 (Aurora B) = Aurora-1 (Aurora B) (Homo sapiens, UniProt Q96GD4); assay: Aurora-1 (Aurora B) inhibition assay (radiometric)
# Experimental: An assay buffer solution was prepared which consisted of 25 mM HEPES (pH 7.5), 10 mM MgCl2, 0.1% BSA and 10% glycerol. […] To 22 μL of the Aurora-B solution, in a 96-well plate, was added 2 μl of a compound stock solution in DMSO and the mixture allowed to equilibrate for 10 minutes at 25° C. The enzyme reaction was initiated by the addition of 16 μl stock [γ-^33P]-ATP solution (˜20 nCi/μL) prepared in assay buffer, to a final assay concentration of 800 μM. The reaction was stopped after 3 hours by the addition of 16 μL 500 mM phosphoric acid and the levels of ^33P incorporation into the peptide substrate were determined by the following method.
# A phosphocellulose 96-well plate (Millipore, Cat no. MAPHNOB50) was pre-treated with 100 μL of a 100 mM phosphoric acid prior to the addition of the enzyme reaction mixture (40 μL). The solution was left to soak on to the phosphocellulose membrane for 30 minutes and the plate subsequently washed four times with 200 μL of a 100 mM phosphoric acid. […] Levels of non-enzyme catalyzed background radioactivity were determined by adding 16 μL of the 500 mM phosphoric acid to control wells, containing all assay components (which acts to denature the enzyme), prior to the addition of the [γ-^33P]-ATP solution. Levels of enzyme catalyzed ^33P incorporation were calculated by subtracting mean background counts from those measured at each inhibitor concentration. […] Ki values were calculated from initial rate data by non-linear regression using the Prism software package (Prism 3.0, Graphpad Software, San Diego, Calif.).
# JAK-2 = JAK-2 (Homo sapiens, UniProt O60674); assay: JAK2 inhibition assay; conditions: 12 μM ATP
# JAK3 = target: T1, JAK3 (Homo sapiens, UniProt P52333); assay: JAK3 inhibition assay
# T1 sequence (P52333 1-1124): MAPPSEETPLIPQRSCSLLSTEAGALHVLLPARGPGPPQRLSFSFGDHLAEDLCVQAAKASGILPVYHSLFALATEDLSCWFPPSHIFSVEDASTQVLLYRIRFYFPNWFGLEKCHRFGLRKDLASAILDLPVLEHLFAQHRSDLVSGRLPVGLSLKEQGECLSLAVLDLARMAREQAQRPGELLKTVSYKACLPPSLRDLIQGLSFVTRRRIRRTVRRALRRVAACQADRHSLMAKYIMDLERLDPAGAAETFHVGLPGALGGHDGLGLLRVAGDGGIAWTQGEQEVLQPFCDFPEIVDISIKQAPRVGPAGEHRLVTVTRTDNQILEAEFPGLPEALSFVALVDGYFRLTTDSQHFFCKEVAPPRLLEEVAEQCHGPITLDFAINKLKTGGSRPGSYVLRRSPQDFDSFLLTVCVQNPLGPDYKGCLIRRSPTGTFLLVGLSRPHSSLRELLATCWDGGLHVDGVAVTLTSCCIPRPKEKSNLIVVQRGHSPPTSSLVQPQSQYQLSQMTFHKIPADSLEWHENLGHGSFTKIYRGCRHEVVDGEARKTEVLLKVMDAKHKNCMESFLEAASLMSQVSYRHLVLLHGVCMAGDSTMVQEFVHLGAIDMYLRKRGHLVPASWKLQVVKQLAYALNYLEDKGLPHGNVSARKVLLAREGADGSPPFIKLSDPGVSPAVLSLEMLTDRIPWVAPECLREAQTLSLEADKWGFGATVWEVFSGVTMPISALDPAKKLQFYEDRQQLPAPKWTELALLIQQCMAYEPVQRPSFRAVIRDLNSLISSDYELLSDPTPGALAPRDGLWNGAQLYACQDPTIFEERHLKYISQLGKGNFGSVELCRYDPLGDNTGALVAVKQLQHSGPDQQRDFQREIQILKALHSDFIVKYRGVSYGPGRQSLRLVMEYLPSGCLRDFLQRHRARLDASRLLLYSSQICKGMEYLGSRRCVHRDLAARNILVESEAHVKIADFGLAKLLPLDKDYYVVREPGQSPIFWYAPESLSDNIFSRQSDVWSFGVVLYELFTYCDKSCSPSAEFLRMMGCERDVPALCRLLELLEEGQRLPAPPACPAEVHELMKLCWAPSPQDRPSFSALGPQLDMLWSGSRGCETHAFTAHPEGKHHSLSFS
# Experimental: Reactions were carried out in a kinase buffer containing 100 mM HEPES (pH 7.4), 1 mM DTT, 10 mM MgCl2, 25 mM NaCl, and 0.01% BSA. Substrate concentrations in the assay were 5 μM ATP (200 uCi/μmole ATP) and 1 μM poly(Glu)4Tyr. Reactions were carried out at 25° C. and 1 nM JAK3.
# To each well of a 96 well polycarbonate plate was added 1.5 μl of a candidate JAK3 inhibitor along with 50 μl of kinase buffer containing 2 μM poly(Glu)4Tyr and 10 μM ATP. This was then mixed and 50 μl of kinase buffer containing 2 nM JAK3 enzyme was added to start the reaction. After 20 minutes at room temperature (25 C), the reaction was stopped with 50 μl of 20% trichloroacetic acid (TCA) that also contains 0.4 mM ATP. The entire contents of each well were then transferred to a 96 well glass fiber filter plate using a TomTek Cell Harvester. After washing, 60 μl of scintillation fluid was added and ^33P incorporation detected on a Perkin Elmer TopCount.
# [1] = 800 μM ATP, read-out: Aurora B Ki
# Chain of Aurora-1 (Aurora B) (Q96GD4 whole entry): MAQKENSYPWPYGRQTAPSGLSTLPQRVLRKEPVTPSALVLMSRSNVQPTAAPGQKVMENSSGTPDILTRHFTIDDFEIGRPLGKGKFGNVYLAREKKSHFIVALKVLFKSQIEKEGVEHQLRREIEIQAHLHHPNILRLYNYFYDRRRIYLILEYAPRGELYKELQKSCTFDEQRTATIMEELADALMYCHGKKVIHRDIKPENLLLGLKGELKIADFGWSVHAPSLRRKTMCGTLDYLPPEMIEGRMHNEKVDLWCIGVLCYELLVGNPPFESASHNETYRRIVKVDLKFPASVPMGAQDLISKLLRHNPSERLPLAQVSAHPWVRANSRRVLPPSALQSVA
# Chain of JAK-2 (O60674 whole entry, species assumed): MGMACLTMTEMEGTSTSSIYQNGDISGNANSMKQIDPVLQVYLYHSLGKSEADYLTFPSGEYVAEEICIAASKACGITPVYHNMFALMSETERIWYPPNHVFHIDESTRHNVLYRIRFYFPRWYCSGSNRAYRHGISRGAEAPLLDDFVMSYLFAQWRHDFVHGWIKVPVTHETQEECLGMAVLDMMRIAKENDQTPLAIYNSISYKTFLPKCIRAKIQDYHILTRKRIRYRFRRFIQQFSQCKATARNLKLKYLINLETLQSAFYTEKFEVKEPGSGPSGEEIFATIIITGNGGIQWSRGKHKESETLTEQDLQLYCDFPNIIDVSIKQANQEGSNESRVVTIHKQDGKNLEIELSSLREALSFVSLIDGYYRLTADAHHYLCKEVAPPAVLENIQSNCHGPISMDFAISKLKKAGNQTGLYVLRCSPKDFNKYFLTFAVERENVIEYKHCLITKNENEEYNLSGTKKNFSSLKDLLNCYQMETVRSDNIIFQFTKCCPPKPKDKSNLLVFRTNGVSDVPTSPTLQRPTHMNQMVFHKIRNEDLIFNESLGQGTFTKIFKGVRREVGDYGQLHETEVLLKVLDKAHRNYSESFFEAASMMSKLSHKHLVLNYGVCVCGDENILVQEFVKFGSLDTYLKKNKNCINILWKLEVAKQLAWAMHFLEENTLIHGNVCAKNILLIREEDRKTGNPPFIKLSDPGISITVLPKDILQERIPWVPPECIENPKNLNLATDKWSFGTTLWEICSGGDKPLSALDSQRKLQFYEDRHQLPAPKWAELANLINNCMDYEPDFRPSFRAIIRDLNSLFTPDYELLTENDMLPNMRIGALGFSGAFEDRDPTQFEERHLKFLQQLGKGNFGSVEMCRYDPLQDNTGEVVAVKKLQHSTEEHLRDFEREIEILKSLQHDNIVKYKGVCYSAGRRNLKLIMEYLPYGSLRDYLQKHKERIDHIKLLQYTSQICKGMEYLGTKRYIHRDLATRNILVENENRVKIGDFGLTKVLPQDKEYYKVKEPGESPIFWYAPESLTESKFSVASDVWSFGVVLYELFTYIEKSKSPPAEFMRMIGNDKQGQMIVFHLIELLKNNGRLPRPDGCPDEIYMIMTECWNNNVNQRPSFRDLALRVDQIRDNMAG
Compound,Ki (Aurora-1 (Aurora B); [1]),Ki (JAK-2),Ki (JAK3),Ki (Aurora-1 (Aurora B))
CCC(=O)Nc1ccc(Sc2nc(Nc3cc(C)n[nH]3)cc(N3CC(O)(C4CC4)C3)n2)cc1 [Compound I-2],7.6 nM,26 nM,160 nM,
CCC(=O)Nc1ccc(Sc2nc(Nc3cc(C)n[nH]3)cc(N3CC(O)(C4CCCC4)C3)n2)cc1 [Compound I-3],6.5 nM,34 nM,150 nM,
CCC(=O)Nc1ccc(Sc2nc(Nc3cc(C)n[nH]3)cc(N3CC(O)(C(C)C)C3)n2)cc1 [Compound I-5],14 nM,26 nM,100 nM,
CCC(=O)Nc1ccc(Sc2nc(Nc3cc(C)n[nH]3)cc(N3CC(O)(C(C)CC)C3)n2)cc1 (stereo not drawn) [Compound I-6],,44 nM,190 nM,6.2 nM
CCC(=O)Nc1ccc(Sc2nc(Nc3cc(C4CC4)[nH]n3)cc(N3CC(O)(C4CC4)C3)n2)cc1 [Compound I-7],< 6 nM,23 nM,37 nM,
Cc1cc(Nc2cc(N3CC(O)(C4CC4)C3)nc(Sc3ccc(NC(=O)C4CC4)cc3)n2)n[nH]1 [Compound I-8],7.1 nM,41 nM,140 nM,
"Cc1cc(Nc2cc(N3CC(O)(C4CC4)C3)nc(Sc3ccc(NC(=O)C4CCCC4)cc3)n2)[nH]n1 [Compound I-9, N-(4-((4-(3-methyl-1H-pyrazol-5-ylamino)-6-(3-cyclopropyl-3-hydroxyazetidin-1-yl)pyrimidin-2-yl)sulfanyl)phenyl)cyclopentanecarboxamide]",< 6 nM,22 nM,150 nM,
O=C(Nc1ccc(Sc2nc(Nc3cc(C4CC4)[nH]n3)cc(N3CC(O)(C4CC4)C3)n2)cc1)C1CC1 [Compound I-10],7 nM,54 nM,51 nM,
"Cc1cc(Nc2cc(N3CC(O)(C4CC4)C3)nc(Sc3ccc(NC(=O)C4CC4)cc3F)n2)[nH]n1 [Compound I-11, N-(4-((4-(3-methyl-1H-pyrazol-5-ylamino)-6-(3-cyclopropyl-3-hydroxyazetidin-1-yl)pyrimidin-2-yl)sulfanyl)-3-fluorophenyl)cyclopropanecarboxamide]",9 nM,15 nM,56 nM,
Cc1cc(Nc2cc(N3CC(O)(C4CC4)C3)nc(Sc3ccc(NC(=O)C4CC4(F)F)cc3)n2)[nH]n1 (stereo not drawn) [Compound I-12],3 nM,2.9 nM,28 nM,
Cc1cc(Nc2cc(N3CC(F)(C4CC4)C3)nc(Sc3ccc(NC(=O)C4CC4)cc3)n2)n[nH]1 [Compound I-13],22 nM,110 nM,290 nM,
"Cc1cc(Nc2cc(N3CC(F)(C4CC4)C3)nc(Sc3ccc(NC(=O)CC(F)(F)F)cc3)n2)[nH]n1 [Compound I-14, N-(4-(4-(3-methyl-1H-pyrazol-5-ylamino)-6-(3-cyclopropyl-3-fluoroazetidin-1-yl)pyrimidin-2-ylthio)phenyl)-3,3,3-trifluoropropanamide]",6.8 nM,11 nM,77 nM,
Cc1cc(Nc2cc(N3CC(F)(C4CC4)C3)nc(Sc3ccc(NC(=O)C4CC4)cc3F)n2)n[nH]1 [Compound I-18],,360 nM,220 nM,18 nM
Cc1cc(Nc2cc(N3CC(F)(C4CC4)C3)nc(Sc3ccc(NC(=O)CC4CC4)cc3)n2)[nH]n1 [Compound I-19],21 nM,130 nM,620 nM,
Cc1cc(Nc2cc(N3CC(F)(C4CC4)C3)nc(Sc3ccc(NC(=O)C4CC4(F)F)cc3)n2)[nH]n1 (stereo not drawn) [Compound I-20],18 nM,51 nM,110 nM,
"Cc1cc(Nc2cc(N3CC(F)(C4CC4)C3)nc(Sc3ccc(NC(=O)CC(F)(F)F)nc3)n2)[nH]n1 [Compound I-21, N-(5-(4-(3-methyl-1H-pyrazol-5-ylamino)-6-(3-cyclopropyl-3-fluoroazetidin-1-yl)pyrimidin-2-ylthio)pyridin-2-yl)-3,3,3-trifluoropropanamide]",9.5 nM,28 nM,100 nM,
